From patent US9889088B2, “Alpha-2 adrenergic agonist having long duration of intraocular pressure-lowering effect” (priority 2010, dated 2018)

How the values were obtained:
corneal epithelial cells = test: Corneal penetration assay
[1] = cited from earlier work; for clearance from the aqueous humor / passage through cornea and sclera: following topical dosing
[2] = stated as found earlier; cited from earlier work
[3] = test system: intraocular pressure of normotensive Dutch-Belted male rabbits; test: Intraocular pressure lowering after a single topical eye drop in normotensive rabbits; type: in vivo, rabbit; settings: for time for which the decrease in intraocular pressure is maintained: single 50 μl drop, treated eye; for sedation, ocular irritation, and changes in pupil diameter: single topical drop, observed throughout the experiment
Experimental: The free base of 4-bromo-N-imidazolidin-2-ylidene-1-H-benzimidazol-5-amine was dissolved in sterile distilled water, hydrochloric acid was added and the hydrochloric salt of the compound was formed in situ. The solution was titrated with sodium hydroxide until the pH of the solution reached 8.0. […] The experimental animals used were normotensive Dutch-Belted male rabbits. A single drop (50 μl) of the drug formulation was administered topically by pipette onto the right eye (treated eye) at approximately 07:00 AM hours. The intraocular pressure of the rabbits (treated and untreated eyes) was measured 0 hours before and at 0.5, 1, 2, 3, 4, 6 and 8 hours after topical eye drop single administration. The intraocular pressure taken before the eye drop administration (0 hours) was used as a baseline value. Prior to the tonometric measurements, 0.05% proparacaine (50 μl) was administered to each eye. Tonometric intraocular pressure measurements were obtained with a Mentor Pneumotonometer. Additionally, all studies were masked. All animals were examined for sedation, ocular irritation, and changes in pupil diameter throughout the course of the experiments.
The free base of 4-bromo-N-imidazolidin-2-ylidene-1-H-benzimidazol-5-amine was dissolved in sterile distilled water, hydrochloric acid was added and the hydrochloric salt of the compound was formed in situ. The solution was titrated with sodium hydroxide until the pH of the solution reached 8.0. The final concentration of 4-bromo-N-imidazolidin-2-ylidene-1-H-benzimidazol-5-amine is 0.2% by weight. The experimental animals used were normotensive Dutch-Belted male rabbits. A single drop (50 μl) of the drug formulation was administered topically by pipette onto the right eye (treated eye) at approximately 07:00 AM hours. The intraocular pressure of the rabbits (treated and untreated eyes) was measured 0 hours before and at 2, 4 and 6 hours after topical eye drop single administration. The intraocular pressure taken before the eye drop administration (0 hours) was used as a baseline value. Prior to the tonometric measurements, 0.05% proparacaine (50 μl) was administered to each eye. Tonometric intraocular pressure measurements were obtained with a Mentor Pneumotonmeter. Additionally, all studies were masked. All animals were examined for sedation, ocular irritation, and changes in pupil diameter throughout the course of the experiments.

[4] = Pharmacokinetic analysis of ocular tissues and plasma after topical dosing in rabbits; type: in vivo, rabbit
Experimental: Twenty-three Dutch Belted female rabbits (group 1) weighing approximately 1.75-2.34 kg were dosed with 35 μL of the formulation to the left eye. At different time points, prior to euthanasia, approximately 0.5 mL of blood was collected via central ear artery and placed in EDTA tubes. Blood samples were kept on ice during the duration of sample collection and centrifuged to harvest plasma. Animals were euthanized with 1 mL of Euthasol intravenously and the ocular tissues (aqueous humor, cornea, conjunctiva, iris-ciliary body, retina, and sclera) were collected from left and right eyes. All ocular tissues samples were placed in vials and kept on dry ice during the duration of sample collection. Ocular tissues were also collected from the control group (group 2) which received no dose. These ocular tissues served as analytical control. All ocular tissue and plasma samples were stored at or below −60° C. until bioanalysis.
(Acheampong et al. (Drug Metabolism and Disposition, Vol 23, No. 7, p 708-712).

[5] = test system: intraocular pressure of hypertensive monkeys; test: Intraocular pressure lowering in hypertensive monkeys; type: in vivo, monkey; settings: composition of Example 1 (FIG. 4 legend: 0.5% solution), compared to placebo
[6] = Iris-ciliary body accumulation and melanin binding (pharmacokinetic data); settings: unpublished pharmacokinetic data
[7] = rats, after oral dose of brimonidine tartrate; Acheampong et al. 2007; cited from earlier work
[8] = Corneal penetration assay

OC[C@@H](O)[C@@H](O)[C@H](O)[C@H](O)CO [Compound 3H-mannitol, 3H-mannitol]
Papp (×10^−6 cm/s) (corneal epithelial cells; permeability coefficient, corneal epithelial cells): 0.512 ± 0.069 ×10^−6 cm/s

Nc1cc(Cl)c(N=C2NCCN2)c(Cl)c1 [apraclonidine, 2,6-dichloro-N-imidazolidin-2-ylidene-benzene-1,4-diamine]
clearance from the aqueous humor [1]: rapidly cleared
passage through cornea and sclera [1]: readily pass through the cornea and sclera
accumulation in the iris-ciliary body [2]: accumulate in the iris-ciliary body
binding to the pigment melanin [2]: high binding

Brc1c(N=C2NCCN2)ccc2[nH]cnc12 [4-bromo-N-imidazolidin-2-ylidene-1-H-benzimidazol-5-amine]
time for which the decrease in intraocular pressure is maintained ([3]; 0.2% by weight solution, topical, FIG. 2): > 6 h
sedation, ocular irritation, and changes in pupil diameter ([3]; 0.2% by weight solution): None of these effects were observed
time for which the decrease in intraocular pressure is maintained ([3]; 1% by weight solution, topical, FIG. 1): > 8 h
sedation, ocular irritation, and changes in pupil diameter ([3]; 1% by weight solution): None of these effects were observed
time for which sustained levels remain in the aqueous humor ([4]; 35 μL topical to left eye, Dutch Belted female rabbits, FIG. 3A): over 8 hours
time for which the level is maintained in several ocular tissues ([4]; 35 μL topical to left eye, FIG. 3B): over 8 hrs
plasma level ([4]; after topical ocular dosing): low and below detectable level
time for which the decrease in intraocular pressure is maintained [5]: up to 24 hours
accumulation at the iris-ciliary body [6]: very little accumulation
melanin binding [6]: no sign of melanin binding
amount found in urine [7]: trace amounts
Papp [8]: 0.119 ± 0.01 ×10⁻⁶ cm/s
penetration of corneal epithelial cells (in words) (corneal epithelial cells): poorly

Brc1c(NC2=NCCN2)ccc2nccnc12 [Brimonidine, (5-bromo-quinoxalin-6-yl)-imidazolidin-2-ylidene-amine]
time in which intraocular pressure returns to baseline ([3]; brimonidine containing composition (0.15% solution per FIG. 1 legend), topical): < 6 h
time in which levels in the aqueous humor are substantially decreased ([4]; 0.15% brimonidine, similar study done previously, FIG. 3A): 3 h
clearance from the aqueous humor [1]: rapidly cleared
passage through cornea and sclera [1]: readily pass through the cornea and sclera
time in which the level decreases in aqueous humor ([1]; regardless of the dose, Acheampong et al.): three
accumulation in the iris-ciliary body [2]: accumulate in the iris-ciliary body
binding to the pigment melanin [2]: high binding
Papp [8]: 8.57 ± 0.64 ×10⁻⁶ cm/s
penetration of corneal epithelial cells (in words) (corneal epithelial cells): moderate penetrator
